The text below walks through data of patent US10550120B2, “Indole alkaloid compound having immune checkpoint inhibitory action” (TOHOKU UNIVERSITY, priority 2016, dated 2020).

For assay [1], the system named is IL-10. Put plainly: Measurement of human IL-10 amount in culture supernatant of MT2 cells with ELISA kit (Test 1). Conditions: 48±2 hours; for activity at 12.5 µM / activity at 25 µM: Homo sapiens, 48 h, DMSO control = 100%, read-out: % against control (IL-10 production). Type of assay: cell-based. How it is done:
(§1) MT2 cells from human adult T-cell leukemia were used. Leukemia cells of human adult T-cell leukemia (ATL) express CD4 and CD25 molecules on the cell surface and are considered to be derived from Treg (Chen S. et al., International Immunology 18:269-277 (2005)). MT2 cells were used in experiments as models of Treg since the cells are CD4 positive, CD25 positive, and FOXP3 positive celles derived from ATL.
(§2) The example compounds (compounds 1-17) of the present invention were dissolved in dimethylsulfoxide (DMSO) to prepare each 50 mmol/L solution, which was preserved at −80° C.
The amount of IL-10 production in the control and the example compounds was measured to evaluate the inhibitory effect on IL-10 production of the example compounds of the present invention.
(1) MT2 cells are suspended in RPMI1640 medium (hereinafter referred to as “the medium”) supplemented with 10% fetal calf serum (FCS) and 1% penicillin/streptomycin (P/S) to give 3×10^5 cells/mL suspension, and 1 mL of the suspension was added to each well of a 24-well plate. […] The cell cultures were incubated 48±2 hours in a CO2 incubator (under a condition of 37° C., 5 CO2). DMSO was diluted 50-fold with the medium, and 20 μL of the diluent was added to the well to make a control of compounds 1-7. In addition, DMSO was diluted 50-fold with the medium, and 25.0 μL of the diluent was added to the well to make a control of compounds 8-17.
(2) A piece of the cell culture was sampled to count cells with a cell counter (BIO RAD TC-20). The cell culture was centrifuged at 300×g for 5 minutes and the supernatant was collected as a sample for IL-10 measurement. When not measured within a day, it was preserved in a freezer at −80° C.
(3) Human IL-10 ELISA kit II (BD OptEIA) was used on the measurement. The kit contains wells treated with anti-IL-10 antibody (8 wells/strip), Standard/Sample diluent, vials comprising freeze-dried IL-10 Standard (1280 pg/vial), ELISA diluent, 20× Wash Buffer, Detection antibody, Enzyme Concentrate, TMB One Step Substrate Reagent, Stop Solution, and cover sheets.
(4) To a vial containing IL-10 Standard was added […] Standard/Sample diluent, and the vial was stood at room temperature for 15 minutes to be dissolved (Standard sample stock solution 1L-10 concentration: 500 pg/mL).
(5) Standard samples in each concentration for making a standard curve were prepared as follows. Firstly, to 300 μL of the medium was added 300 μL of the standard sample stock solution, and the mixture was mixed with a Voltex mixer (250 pg/mL). Next, 300 μL of the standard sample of 250 pg/mL was added to 300 μL of the medium and the mixture was mixed with a Voltex mixer (125 pg/mL). The same procedures were successively repeated to prepare standard solutions of 62.5, 31.25, 15.625, and 7.8125 pg/mL. As 0 pg/mL standard solution, the medium was used.
(6) A kit containing wells treated with anti-IL-10 antibody (8 wells/strip) was warmed to room temperature and 50 μL of ELISA diluent in the kit was added into each well.
(7) To each well containing ELISA diluent, 100 μL of the standard samples of each concentration and each test sample (diluded 50-100 fold with medium) were added.
(8) After the wells were sealed with a cover sheet and gently tapped, they were left at room temperature for 2 hours.
(9) 20× Wash Buffer was diluted 20-fold with water to prepare 1× Wash Buffer.
(10) After the reaction was done for 2 hours, the solutions in each well were aspirated and washed 5 times with 300 μL of 1× Wash Buffer.
(11) After Enzyme Concentrate (4 μL per 8 wells) was added to Detection antibody (1 ml per 8 wells), the solution was mixed by a Vortex mixer and then a necessary amount of Working Detector was prepared.
(12) 100 μL of Working Detector was added to each well, covered with a cover sheet, and the wells were left at room temperature for an hour.
(13) After the reaction was done for an hour, the solutions in wells were aspirated and washed 7 times with 300 μL of 1× Wash Buffer. […]
(An ELISA detects its analyte on a solid surface through an enzyme-linked reagent.)

Assay [2] deals with CTLA-4. Put plainly: Intracellular staining of MT2 cells with fluorescence-labeled anti-CTLA-4 antibody and measurement by flow cytometry. The assay is classed as cell-based, human. The conditions noted are these: 25.0 μmol/L, 48±2 hours; for Peak MFI of CTLA-4: isotype IgG2a subtracted, average of n=3; for activity at 25 µM: Homo sapiens, 48 h, DMSO control = 100%, read-out: % against control (CTLA-4 expression). The procedure: as §1, §2
(1) MT2 cells were suspended in RPMI1640 medium (hereinafter referred to as “the medium”) supplemented with 10% fetal calf serum (FCS) and 1° penicillin/streptomycin (P/S) to give 3×10^5 cells/mL suspension and 3 mL of the suspension was added to each well of a 6-well plate. To each well were added 0.6 or 1.2 μL of the test compound solutions (compounds 1, 2, and 4), 0.75 or 1.5 μL of the test compound solution (compound 9), and 1.5 μL of the test compound solutions (compounds 8 and 10-17), and the cell cultures were incubated in a CO2 gas incubator (under 37° C., 5% CO2) and cultured for 48±2 hours. As a control of compound 1, 2 and 4, only 1.2 μL of DMSO was added to the well. In addition, as a control of compound 8-17, only 1.5 μL of DMSO was added to the well.
(2) A piece of the cell culture was sampled to count cells with a cell counter (BIO RAD TC-20). The cell culture was centrifuged at 300×g for 5 min, and the supernatant was removed. The residue was suspended in phosphate buffered saline (supplemented with 1% bovine serum albumin (BSA), without calcium and magnesium) (1% BSA/PBS) to adjust the concentration of cells to 5-10×10^6 cells/mL.
(3) To 5 ml tube, each 50 μL of the cell suspension was added.
(4) Foxp3/Transcription Factor Fix/Perm Concentrate (4×) (Cat. No. TNB-1020-L050) (Solution A) in FOXP3/Transcription Factor Staining kit (TONBO biosciences) was diluted with Foxp3/Transcription Factor Fix/Perm Diluent (1×) (Cat. No. TNB-1022-L160) (for dilution of Solution A) to prepare 1× Solution A.
(5) 1 mL of 1× Solution A was added to each tube and mixed by gentle pipetting. Subsequently, it was left at room temperature for 30 min, centrifuged at 300×g for […], and the supernatant was discarded.
(6) Flow Cytometry Perm Buffer (10×) (Cat. No. TNB-1213-L150) (Solution B) in the kit was diluted 10-fold with water to prepare 1× Solution B.
(7) 2 mL of 1× Solution B was added to the tube and centrifuged at 300×g for 5 min. The supernatant was discarded. 2 μL of 2% normal mouse serum/PBS was added to the tube and the tube was gently pipetted. Subsequently, it was left at room temperature for 15 min.
(8) In the CTLA-4 measurement, 20 μL of anti-CTLA-4 antibody (BECKMAN COULTER, CD152-PE clone BN13I M2282) or mouse IgG2a (BECKMAN COULTER, IgG2a (Mouse)-PE A09142) for the control was added to the tube and the tube was gently stirred. Subsequently, it was left in the dark at room temperature for 30 min, and 2 mL of the 1× Solution B was added thereto, the mixture was centrifuged at 300×g for 5 min, and the supernatant was discarded. 2 mL of the 1× Solution B was added to the tube again, the mixture was centrifuged at 300×g for 5 min, and the supernatant was discarded.
(9) Within 2 hours after the solution in the tube was suspended in 0.5 mL of 1% BSA/PBS, and the fluorescence at 577 nm was measured with 488 nm excitation with a flow cytometer (Sony: Cell Sorter SH800). The results were analyzed with software, FlowJo (Tree Star Inc.). The mean peak fluorescence intensity (MFI) of CTLA-4 and mean peak fluorescence intensity of isotype control IgG2a were calculated from histgrams of the measured fluorescence intensity and number of cells, and mean fluorescence intensity of IgG2a was subtracted from that of CTLA-4. Experiments were conducted in n=3, and the average values were shown.
Background: Flow cytometry measures light scatter and fluorescence of single cells or particles in a stream.

As to `COC(=O)C1=CN2CCc3c([nH]c4ccc(Cl)cc34)[C@@H]2[C@@H]2[C@@H](C)[C@@H](O)C[C@H]12` [Compound 12], in assay [1] (12.5 μmol/L), the “IL-10 (ng/10^6 cells) ± standard deviate (n = 3)” value came to 7.1 ± 0.2 ng/10^6 cells and the activity at 12.5 µM was 75.7%. Besides, in assay [1] (25.0 μmol/L), the “IL-10 (ng/10^6 cells) ± standard deviate (n = 3)” value is on record as 4.8 ± 0.3 ng/10^6 cells and the activity at 25 µM was determined as 50.9%. In assay [2], the “Peak MFI of CTLA-4” value was determined as 485 and the activity at 25 µM is 57.2%.
`COC(=O)C1=CN2CCc3c([nH]c4ccc(Br)cc34)[C@@H]2[C@@H]2[C@@H](C)[C@@H](O)C[C@H]12` [Compound 13]: in assay [1] (12.5 μmol/L), the “IL-10 (ng/10^6 cells) ± standard deviate (n = 3)” value amounted to 7.7 ± 0.6 ng/10^6 cells and the activity at 12.5 µM stood at 81.2%. Moreover, in assay [1] (25.0 μmol/L), the “IL-10 (ng/10^6 cells) ± standard deviate (n = 3)” value is on record as 4.2 ± 0.2 ng/10^6 cells and the activity at 25 µM was 44%. Besides, in assay [2], the “Peak MFI of CTLA-4” value is on record as 775 and the activity at 25 µM came out at 91.6%.
`COC(=O)C1=CN2CCc3c([nH]c4ccc(C)cc34)[C@@H]2[C@@H]2[C@@H](C)[C@@H](O)C[C@H]12` [Compound 14]: in assay [1] (12.5 μmol/L), the “IL-10 (ng/10^6 cells) ± standard deviate (n = 3)” value amounted to 7.4 ± 0.3 ng/10^6 cells and the activity at 12.5 µM amounted to 67.7%. Moreover, in assay [1] (25.0 μmol/L), the “IL-10 (ng/10^6 cells) ± standard deviate (n = 3)” value turned out to be 4.3 ± 1.0 ng/10^6 cells and the activity at 25 µM was 39.2%. Further, in assay [2], the “Peak MFI of CTLA-4” value is listed as 450 and the activity at 25 µM is 53%.
`COC(=O)C1=CN2CCc3c([nH]c4ccc(OCc5ccccc5)cc34)[C@@H]2[C@@H]2[C@@H](C)[C@@H](O)C[C@H]12` [Compound 15]: in assay [1] (12.5 μmol/L), the “IL-10 (ng/10^6 cells) ± standard deviate (n = 3)” value worked out at 6.5 ± 0.2 ng/10^6 cells and the activity at 12.5 µM was 59.3%. In assay [1] (25.0 μmol/L), the “IL-10 (ng/10^6 cells) ± standard deviate (n = 3)” value is listed as 0.6 ± 0.4 ng/10^6 cells and the activity at 25 µM was determined as 5.1%. In assay [2], the “Peak MFI of CTLA-4” value stood at 284 and the activity at 25 µM came to 37.7%.
Regarding `COC(=O)C1=CN2CCc3c([nH]c4ccc(O)cc34)[C@@H]2[C@@H]2[C@@H](C)[C@@H](O)C[C@H]12` [Compound 16], in assay [1] (12.5 μmol/L), the “IL-10 (ng/10^6 cells) ± standard deviate (n = 3)” value stood at 9.8 ± 0.3 ng/10^6 cells and the activity at 12.5 µM is 88.9%. In addition, in assay [1] (25.0 μmol/L), the “IL-10 (ng/10^6 cells) ± standard deviate (n = 3)” value came out at 8.6 ± 0.1 ng/10^6 cells and the activity at 25 µM was found to be 77.9%. In assay [2], the “Peak MFI of CTLA-4” value was determined as 529 and the activity at 25 µM came out at 70.3%.
Regarding `COC(=O)C1=CN2CCc3c([nH]c4c(F)cccc34)[C@@H]2[C@@H]2[C@@H](C)[C@@H](O)C[C@H]12` [Compound 17], in assay [1] (12.5 μmol/L), the “IL-10 (ng/10^6 cells) ± standard deviate (n = 3)” value was determined as 7.0 ± 0.2 ng/10^6 cells and the activity at 12.5 µM was found to be 64.2%. In assay [1] (25.0 μmol/L), the “IL-10 (ng/10^6 cells) ± standard deviate (n = 3)” value is 6.0 ± 0.2 ng/10^6 cells and the activity at 25 µM turned out to be 54.2%. For the same molecule, in assay [2], the “Peak MFI of CTLA-4” value came out at 339 and the activity at 25 µM was determined as 45%.
